# Columns and labels:
# HGF/MET system = experiment: Phospho-MET ELISA; format: cell-based; details: HEK293 cells; with 1 ng/mL recombinant HGF; 15 minutes; augmentation of MET phosphorylation (pMET ELISA)
# In short: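 Serum-starved (≥8 h) HEK293 cells treated with compound plus 1 ng/mL recombinant HGF for 15 min at 37° C in triplicate, then lysed in RIPA. Equal protein (50–100 μg, BCA-normalized) run in pMET sandwich ELISA, A450 read. Responses scaled 1–10 between 1 ng/mL and 10 ng/mL HGF means, using peak efficacy.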
# MDCK cells = experiment: Cell scattering behavior assay; format: cell-based; parameters: key: − indicates that the compound failed to significantly promote cell scattering behavior; + indicates maximum potency at or above 100 nM; ++ indicates maximum potency at or above 10 nM; +++ indicates maximum potency at or above 1 nM; ++++ indicates maximum potency at or above 0.1 nM; details: with 5 ng/mL HGF, 24 hours, normalized particle count compared to HGF treatment alone
# In short: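 MDCK cells starved 2 h in serum-free DMEM, then treated 24 h at 37 °C with compounds plus 5 ng/mL HGF. Cells were ethanol-fixed, WGA488-stained and imaged. Scattering was scored as particle count normalized to stained area, with activity taken as a statistical increase in normalized particle count over HGF alone.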
# [1] = Parallel artificial membrane permeability assay (PAMPA); format: in vitro ADME; details: PBS, room temperature for 5 hours, 200 uM in donor well
# Description: Bioavailable drugs must permeate the cellular membranes of the lining of the digestive tract. To estimate the penetrability of exemplary compounds, the in vitro parallel artificial membrane permeability assay (PAMPA) was utilized.
# Test compounds must have a standard curve in the final read plate to determine partitioned concentration of each drug. A 6-point standard curve was prepared for each compound from 0 to 200 μM in phosphate-buffered saline (PBS).
# Test compound solution (300 μL in PBS) was added to the donor (bottom) well of the PAMPA plate in 5 replicates and PBS vehicle (200 μL) was added to the acceptor (top) wells of appropriate wells to match the loading of the donor plate. The bottom and top of the PAMPA plates were then sandwiched together. The PAMPA plates were then incubated at room temperature for 5 hours. After incubation, 150 μL of donor solution was added to a UV compatible plate containing the corresponding standard curve. 150 μL of acceptor well solution was added adjacent to the corresponding standard curve and donor well samples for that compound. The plate was then read using a UV plate reader.
# Permeability and membrane retention were then calculated based on the following formulas:
# where: • A=filter area (0.3 cm^2); • VD=donor well volume (0.3 mL); • VA=acceptor well volume (0.2 mL); • t=incubation time (seconds); • CA(t)=compound concentration in acceptor well at time t; • CD(t)=compound concentration in donor well at time t; and
# where: • CD(t), VD, CA(t), and VA are as defined for equation 1, and • C0=initial concentration in donor well (200 uM).
# [2] = system: hepatocyte (HepG2) cell cultures; experiment: Cytotoxicity assay (LDH release); format: cell-based; details: HepG2 cells, 48 hours, 0.1 to 100 μM
# Description: This experiment was designed to obtain a preliminary assessment of cytotoxicity.
# HepG2 cells were plated in 96-well cell culture plates and allowed to attach overnight at 37° C., 5% CO2 in EMEM+10% FBS. Treatments were made in complete media (EMEM+10% FBS) and included a dilution series of test compounds from 0.1 to 100 μM. Known cytotoxin cerivastatin was used as a positive assay control and prepared at a final concentration of 0.5 μM.
# Growth media was replaced with treatment media (EMEM+10% FBS containing test compound dissolved in DMSO) and cells were incubated with test compounds for 48 hours. At the end of the incubation period, supernatant media from each well was transferred to a new plate and LDH assay working solution was added. LDH assay solution undergoes a colorimetric reaction in proportion to the amount of lactate dehydrogenase (an intracellular protein that was only found in the media in the presence of lysed cells) in the media. Color reaction was quantified by measurement of absorbance at a wavelength of 490 nm.
# The signal range of the assay was determined by no manipulation in a negative control treatment and full lysis of all cells in a lysis control sample. Compounds that increase the level of cytotoxicity more than 20% above negative control samples were considered cytotoxic in this assay.
SMILES,"Papp at 5 h, 200 uM [1]",Potency (HGF/MET system),Potency (MDCK cells),Cytotoxicity [2]
CCC(C)CN1CC2N(C(=O)c3ccc(C(F)(F)F)cc3)CCC(=O)N2[C@@H](C)C1=O (stereo partly drawn) [Compound 1a],> 2 ×10⁻⁶ cm/s,++++ (++++ indicates maximum potency at or above 0.1 nM),++++ (++++ indicates maximum potency at or above 0.1 nM),++++ (++++ indicates non-toxic at 100 μM)
CCC(C)CN1CC2N(C(=O)c3ccc(OC(F)F)cc3)CCC(=O)N2[C@@H](C)C1=O (stereo partly drawn) [Compound 2a],< 2 ×10⁻⁶ cm/s,++ (++ indicates maximum potency at or above 10 nM),+ (+ indicates maximum potency at or above 100 nM),++++ (++++ indicates non-toxic at 100 μM)
CCC(C)CN1CC2N(Cc3ccc(C(F)(F)F)cc3)CCC(=O)N2[C@@H](C)C1=O (stereo partly drawn) [Compound 5a],< 2 ×10⁻⁶ cm/s,+ (+ indicates maximum potency at or above 100 nM),++++ (++++ indicates maximum potency at or above 0.1 nM),++++ (++++ indicates non-toxic at 100 μM)
CCC(C)CN1CC2N(Cc3ccc(OC(F)F)cc3)CCC(=O)N2[C@@H](C)C1=O (stereo partly drawn) [Compound 6a],< 2 ×10⁻⁶ cm/s,+ (+ indicates maximum potency at or above 100 nM),+++ (+++ indicates maximum potency at or above 1 nM),++++ (++++ indicates non-toxic at 100 μM)
CCC(C)CN1CC2N(Cc3ccc(O)nc3)CCC(=O)N2[C@@H](C)C1=O (stereo partly drawn) [Compound 7a],> 10 ×10⁻⁶ cm/s,++ (++ indicates maximum potency at or above 10 nM),++ (++ indicates maximum potency at or above 10 nM),++++ (++++ indicates non-toxic at 100 μM)
CCC(C)CN1CC2N(C(=O)c3ccc(O)cc3)CCC(=O)N2[C@@H](C)C1=O (stereo partly drawn) [Compound 8a],> 10 ×10⁻⁶ cm/s,+ (+ indicates maximum potency at or above 100 nM),+++ (+++ indicates maximum potency at or above 1 nM),++++ (++++ indicates non-toxic at 100 μM)

# The next lines start with results.
"Papp at 5 h, 200 uM [1]",SMILES,Potency (HGF/MET system),Potency (MDCK cells),Cytotoxicity [2]
> 2 ×10⁻⁶ cm/s,"CCC(C)CN1CC2N(C(=O)c3ccc(F)cc3)CCC(=O)N2C(C)C1=O (stereo not drawn) [Compound 11, 1-(4-fluorobenzoyl)-6-methyl-8-(2-methylbutyl)hexahydro-4H-pyrazino[1,2-a]pyrimidine-4,7(6H)-dione]",+++ (+++ indicates maximum potency at or above 1 nM),++ (++ indicates maximum potency at or above 10 nM),++++ (++++ indicates non-toxic at 100 μM)
< 2 ×10⁻⁶ cm/s,"CCC(C)CN1CC2N(C(=O)c3ccc(C(F)(F)F)c(Cl)c3)CCC(=O)N2C(C)C1=O (stereo not drawn) [Compound 12, 1-(3-chloro-4-(trifluoromethyl)benzoyl)-6-methyl-8-(2-methylbutyl)hexahydro-4H-pyrazino[1,2-a]pyrimidine-4,7(6H)-dione]",++ (++ indicates maximum potency at or above 10 nM),++ (++ indicates maximum potency at or above 10 nM),++++ (++++ indicates non-toxic at 100 μM)
> 2 ×10⁻⁶ cm/s,CCCCN1CC2N(C(=O)c3ccc(OC(F)F)cc3)CCC(=O)N2C(C)C1=O (stereo not drawn) [Compound 17],+++ (+++ indicates maximum potency at or above 1 nM),−,++++ (++++ indicates non-toxic at 100 μM)
< 2 ×10⁻⁶ cm/s,CC1C(=O)N(CCC2CCCC2)CC2N(C(=O)c3ccc(C(F)(F)F)cc3)CCC(=O)N12 (stereo not drawn) [Compound 19],+++ (+++ indicates maximum potency at or above 1 nM),+++ (+++ indicates maximum potency at or above 1 nM),++++ (++++ indicates non-toxic at 100 μM)
< 2 ×10⁻⁶ cm/s,CC1C(=O)N(CCC2CCC2)CC2N(C(=O)c3ccc(C(F)(F)F)cc3)CCC(=O)N12 (stereo not drawn) [Compound 20],+ (+ indicates maximum potency at or above 100 nM),+++ (+++ indicates maximum potency at or above 1 nM),++++ (++++ indicates non-toxic at 100 μM)
< 2 ×10⁻⁶ cm/s,C=CCCN1CC2N(C(=O)c3ccc(C(F)(F)F)cc3)CCC(=O)N2C(C)C1=O (stereo not drawn) [Compound 22],+++ (+++ indicates maximum potency at or above 1 nM),++ (++ indicates maximum potency at or above 10 nM),++++ (++++ indicates non-toxic at 100 μM)

# From patent US20250041307A1, “Uses of Bicyclic Compounds for the Treatment of Diseases” (Athira Pharma, Inc., priority 2021, published 2025)
